Legend:
ABCB1 [1] = biological target: T1, ABCB1 (Homo sapiens, UniProt P08183); assay: calcein AM assay, ABCB1-expressing A2780/ADR cells; conditions: for IC50: read-out: ABCB1 calcein AM IC50 ± SEM, A2780/ADR cells, 22, 23 constrained to reference inhibitor 34; for ABCB1 inhibition: screening at 10 μM, inhibitor if 20% (+SEM) reached
Description: To provide a detailed picture of the pharmacological profile of the indole derivatives, we investigated their modulatory nature on the most prominent ABC transporters ABCB1 (P-glycoprotein, P-gp), ABCC1, (multidrug resistance-associated protein 1, MRP1), and ABCG2 (breast cancer resistance protein, BCRP). Here, we conducted calcein AM (ABCB1),[2],[52]−[59] daunorubicin (ABCC1),[52],[58]−[60] and pheophorbide A (ABCG2)[2],[52]−[60] assays using ABCB1-expressing A2780/ADR, ABCC1-expressing H69AR, and ABCG2-expressing MDCK II BCRP cells, respectively.
The calcein AM (ABCB1),[2],[52]−[59] daunorubicin (ABCB1[52],[60] and ABCC1[52],[58]−[60]), and pheophorbide A (ABCG2)[2],[52]−[60] assays were conducted as reported earlier. […] The data was processed using GraphPad Prism version 8.4.0, and IC50 values were determined, applying three- or four-parameter logistic equations, whatever was statistically preferred.

MCT1 = biological target: T2, MCT1 (Homo sapiens, UniProt P53985); assay: functional 3-BP cell viability assay (MCT1 transport inhibition); assay type: cell-based; conditions: MCT1-expressing A-549 cells, 50 μM 3-BP, 72 h; read-out: MCT1 transport inhibition IC50 ± SEM
T2 construct: MCT1-expressing A-549 cells[14],[15] were exposed to the MCT1 substrate 3-BP, which becomes influxed by MCT1; endogenous in cells; host or cells: A-549 lung cancer cells (from NCCS, Pune)
T2 sequence (P53985 1-500): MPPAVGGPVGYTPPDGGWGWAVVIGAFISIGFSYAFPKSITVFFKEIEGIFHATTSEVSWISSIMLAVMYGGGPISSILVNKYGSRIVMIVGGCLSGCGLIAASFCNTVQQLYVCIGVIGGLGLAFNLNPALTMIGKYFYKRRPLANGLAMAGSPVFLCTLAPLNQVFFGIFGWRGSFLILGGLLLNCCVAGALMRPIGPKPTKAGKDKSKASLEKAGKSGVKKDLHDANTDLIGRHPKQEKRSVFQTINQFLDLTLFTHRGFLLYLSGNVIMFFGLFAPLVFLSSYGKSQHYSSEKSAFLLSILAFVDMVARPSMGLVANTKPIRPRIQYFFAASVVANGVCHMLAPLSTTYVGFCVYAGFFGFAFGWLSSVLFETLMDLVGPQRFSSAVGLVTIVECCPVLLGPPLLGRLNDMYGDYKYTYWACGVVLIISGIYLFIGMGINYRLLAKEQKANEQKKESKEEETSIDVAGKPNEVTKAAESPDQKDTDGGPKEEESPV
T2 sequence (P35613 140-385 partner limits assumed): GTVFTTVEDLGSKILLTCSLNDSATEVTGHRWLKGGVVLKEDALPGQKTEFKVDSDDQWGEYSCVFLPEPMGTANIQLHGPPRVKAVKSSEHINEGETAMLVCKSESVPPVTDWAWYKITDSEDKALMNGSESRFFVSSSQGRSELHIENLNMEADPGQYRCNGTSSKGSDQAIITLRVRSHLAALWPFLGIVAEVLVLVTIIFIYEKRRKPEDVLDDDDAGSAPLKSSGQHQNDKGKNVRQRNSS
Method: The inhibitory activity of indole derivatives against MCT1 was determined by applying a functional 3-bromopyruvate (3-BP) cell viability assay, as described in the literature[20],[39] with minor modifications. In short, MCT1-expressing A-549 cells[14],[15] were exposed to the MCT1 substrate 3-BP, which becomes influxed by MCT1. 3-BP is toxic, leading to decreased cell viability. Functional inhibition of MCT1 results in reduced intracellular 3-BP levels and, thus, enhanced cell viability compared to no inhibition. […] Table 1 provides the half-maximal inhibition concentration (IC50) values of compounds 17–32.
A functional 3-BP cytotoxicity assay was conducted as described in the literature[20],[39] with minor modifications. Dilution series of compounds 17–32 between 1 nM and 1 μM were prepared in DPBS (Cell Clone, Genetix Biotech Asia, New Delhi India), and 10 μL of each concentration was pipetted into a colorless flat-bottom 96-well microplate (SPL Life Sciences, Gyeonggi-do, Republic of Korea). One hundred and eighty microliters of a cell suspension (5000 cells/well) of A-549 cells was added, and subsequently, 10 μL of 3-BP was added at a concentration of 1 mM (final concentration per well: 50 μM). The plate was kept for 72 h at 37 °C under a 5% CO2-humidified atmosphere. Cell viability was determined as described before[43] by adding 20 μL of a 5 mg/mL solution of MTT to each well and further incubation for 1 h. Eventually, the supernatant was removed and 100 μL of DMSO was added to each well. The absorbance was spectrophotometrically determined at 570 nm using a SpectraMax iD3 multi-mode microplate reader (Molecular Devices, San Jose, CA) with a background correction (690 nm). The determined absorbance values were correlated to the logarithmic concentrations of compounds 17–32, and IC50 values were calculated applying nonlinear regression using GraphPad Prism (version 8.4.0., San Diego, CA).

A-549 cells = assay: MTT-based cell viability assay with glucose supplementation; conditions: 25 and 50% of original glucose (4.5 g/L) every 12 h over 72 h
Method: The glucose deprivation analyses were conducted by adding 4.5 μL of glucose (final concentrations 25% and 50% of the original 4.5 g/L) to each well at an interval of 12 h over a period of 72 h to the 180 μL cell suspension of A-549 cells in a colorless flat-bottom 96-well microplate (SPL Life Sciences, Gyeonggi-do, Republic of Korea). Cell viability was determined as described above.

ABCB1 [2] = biological target: T1, ABCB1; assay: daunorubicin assay, ABCB1-expressing A2780/ADR cells; assay type: cell-based; conditions: A2780/ADR cells; read-out: ABCB1 daunorubicin IC50 ± SEM
[3] = test system: ABCB1-expressing A2780/ADR cells; assay: MTT-based efficacy (MDR-reversal) assay, 33 in combination with test compound, A2780/ADR; assay type: cell-based; conditions: for sensitization of ABCB1-expressing A2780/ADR cells against 33: 5 μM; for EC50: from resistance factors of 33 (A2780/ADR vs A2780) against compound concentration, read-out: half-maximal reversal concentration (EC50)
Method: This sensitization is indicated by a shift of the concentration-effect curve of compound 33 from the right (=high concentrations of 33 needed to induce A2780/ADR cell death) to the left (=lower concentrations of 33 needed to induce A2780/ADR cell death). The concentration-effect curve of compound 33 in combination with 5 μM of either compound 24 or 30 resembles the concentration-effect curve of the sensitive cell line A2780. […] Thus, their potentiating effect with respect to the antiproliferative agent 33 against ABCB1-expressing A2780/ADR cells is due to the inhibition of ABCB1. Therefore, compounds 24 and 30 were dually effective against MCT1- and ABCB1-expressing cells (Table 5).
An MDR-reversal assay[2],[55]−[59] was used to investigate the ability to reverse ABCB1-mediated MDR in A2780/ADR cells toward the cytotoxic ABCB1 substrate 33. […] A dilution series of 33 at concentrations between 0.1 μM and 100 μM was generated, and 20 μL of each concentration was transferred onto the plates (final concentration: 0.01–10 μM). The plates were incubated for 72 h at 37 °C and a 5% CO2-humidified atmosphere, before subsequent processing with the regular MTT assay as described above. The observed effects of compounds 24 and 30 were compared to the effect of 33 alone on A2780/ADR cells as well as its sensitive counterpart A2780 (∼10,000 cells/well).

T1 sequence (P08183 whole entry): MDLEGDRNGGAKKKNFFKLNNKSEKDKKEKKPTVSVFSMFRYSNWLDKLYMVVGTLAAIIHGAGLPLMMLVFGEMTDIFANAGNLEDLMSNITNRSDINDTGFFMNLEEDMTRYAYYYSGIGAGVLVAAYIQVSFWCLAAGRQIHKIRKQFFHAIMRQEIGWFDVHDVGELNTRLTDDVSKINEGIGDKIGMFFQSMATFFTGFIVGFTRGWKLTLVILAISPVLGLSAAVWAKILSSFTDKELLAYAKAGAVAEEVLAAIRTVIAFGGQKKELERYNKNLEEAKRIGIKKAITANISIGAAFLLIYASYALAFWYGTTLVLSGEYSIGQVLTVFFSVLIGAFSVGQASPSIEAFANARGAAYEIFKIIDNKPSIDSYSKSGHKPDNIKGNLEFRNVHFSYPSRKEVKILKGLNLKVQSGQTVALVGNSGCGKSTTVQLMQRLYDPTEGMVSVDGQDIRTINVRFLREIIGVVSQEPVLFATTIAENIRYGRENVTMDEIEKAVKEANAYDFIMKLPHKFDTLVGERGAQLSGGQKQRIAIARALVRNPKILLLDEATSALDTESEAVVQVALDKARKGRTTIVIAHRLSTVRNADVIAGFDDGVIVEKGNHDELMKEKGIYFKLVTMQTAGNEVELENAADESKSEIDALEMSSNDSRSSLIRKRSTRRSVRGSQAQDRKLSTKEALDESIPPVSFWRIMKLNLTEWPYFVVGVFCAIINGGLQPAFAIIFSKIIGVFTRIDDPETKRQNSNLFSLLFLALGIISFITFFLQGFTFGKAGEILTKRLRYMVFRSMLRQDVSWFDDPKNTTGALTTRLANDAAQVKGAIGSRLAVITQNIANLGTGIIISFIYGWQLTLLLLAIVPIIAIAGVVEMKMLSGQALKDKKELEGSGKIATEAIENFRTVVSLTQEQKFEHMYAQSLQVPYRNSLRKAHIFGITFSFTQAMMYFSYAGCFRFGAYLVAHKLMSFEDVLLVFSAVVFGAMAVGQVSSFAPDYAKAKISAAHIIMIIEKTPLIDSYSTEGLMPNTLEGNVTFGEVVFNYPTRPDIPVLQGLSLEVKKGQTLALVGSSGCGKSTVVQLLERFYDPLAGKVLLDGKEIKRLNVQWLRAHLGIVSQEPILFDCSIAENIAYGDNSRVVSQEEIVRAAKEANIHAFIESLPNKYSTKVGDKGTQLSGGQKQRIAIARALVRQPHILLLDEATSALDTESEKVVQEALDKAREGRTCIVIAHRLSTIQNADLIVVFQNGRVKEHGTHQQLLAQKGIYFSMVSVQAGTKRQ

COC(=O)/C(C#N)=C/c1cn(CC(=O)Nc2ccc(OC)cc2)c2ccccc12 [Compound 24, Methyl-2-cyano-3-(1-(2-((4-methoxyphenyl)amino)-2-oxoethyl)-1H-indol-3-yl) Acrylate]
IC50 (ABCB1 [1]): 983 ± 135 nM
ABCB1 inhibition (ABCB1 [1]): X (Compounds were considered as inhibitors if they reached 20% (+SEM) inhibition compared to the reference inhibitors 33–35; X = fulfilled)
IC50 (MCT1): 81 ± 4 nM
effect of glucose supplementation on cell toxicity (A-549 cells): supplementation of glucose prevents cell toxicity
IC50 (ABCB1 [2]): 1490 ± 50 nM
sensitization of ABCB1-expressing A2780/ADR cells against 33 [3]: completely sensitized
EC50 [3]: 793 ± 39 nM

COC(=O)/C(C#N)=C/c1cn(CC(=O)Nc2ccc(C)cn2)c2ccccc12 [Compound 30, Methyl-2-cyano-3-(1-(2-((5-methylpyridin-2-yl)amino)-2-oxoethyl)-1H-indol-3-yl) Acrylate]
IC50 (ABCB1 [1]): 1510 ± 80 nM
ABCB1 inhibition (ABCB1 [1]): X (Compounds were considered as inhibitors if they reached 20% (+SEM) inhibition compared to the reference inhibitors 33–35; X = fulfilled)
IC50 (MCT1): 82.3 ± 4.4 nM
effect of glucose supplementation on cell toxicity (A-549 cells): supplementation of glucose prevents cell toxicity
IC50 (ABCB1 [2]): 2770 ± 20 nM
sensitization of ABCB1-expressing A2780/ADR cells against 33 [3]: completely sensitized
EC50 [3]: 1220 ± 10 nM

Reference: publication PMC9841531, “Indole Derivatives as New Structural Class of Potent and Antiproliferative Inhibitors of Monocarboxylate Transporter 1 (MCT1; SLC16A1)” (Journal of Medicinal Chemistry, 2022)
